ChEMBL document CHEMBL1201862, “PubChem BioAssay data set” (2004)
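96-well plates; 48 h exposure; 5 concentrations. Endpoints by linear interpolation between flanking doses. Not reached: highest tested concentration assigned. The concentration for 50% growth inhibition is given as GI50.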 Activity calls are given as the source filed them. Rule as the data show it: active = GI50 up to about 1.1 µM and inactive = higher. Where a SMILES comes first, the peptide text is derived from it. [ ]: non-standard residue; d: D form. The star is where a group is joined. NMeF = CN[C@@H](Cc1ccccc1)C(=O)O; NMeV = CN[C@H](C(=O)O)C(C)C; Boc = CC(C)(C)OC(=O)*; OBn = c1ccc(CO*)cc1

Legend:
Experiment in all cases: NCI-60 cell line screen, 48 h
SK-OV-3 = tested on: SK-OV-3
Malme-3M = tested on: Malme-3M
786-0 = tested on: 786-0
UACC-257 = tested on: UACC-257
UO-31 = tested on: UO-31
NCI-H522 = tested on: NCI-H522
SK-MEL-2 = tested on: SK-MEL-2
RXF 393 = tested on: RXF 393
MDA-MB-231 = tested on: MDA-MB-231
SK-MEL-28 = tested on: SK-MEL-28
SW-620 = tested on: SW-620
OVCAR-5 = tested on: OVCAR-5
DU-145 = tested on: DU-145
MOLT-4 = tested on: MOLT-4
U-251 = tested on: U-251
NCI-H226 = tested on: NCI-H226
IGROV-1 = tested on: IGROV-1
SK-MEL-5 = tested on: SK-MEL-5
A498 = tested on: A498

Structure (SMILES)	GI50 (SK-OV-3)	GI50 (Malme-3M)	GI50 (786-0)	GI50 (UACC-257)	GI50 (UO-31)	GI50 (NCI-H522)	GI50 (SK-MEL-2)	GI50 (RXF 393)	GI50 (MDA-MB-231)	GI50 (SK-MEL-28)	GI50 (SW-620)	GI50 (OVCAR-5)	GI50 (DU-145)	GI50 (MOLT-4)	GI50 (U-251)	GI50 (NCI-H226)	GI50 (IGROV-1)	GI50 (SK-MEL-5)	GI50 (A498)
CCOC(=O)C(C(=S)Nc1ccccc1)c1nn2c(=O)cc(C)nc2s1 (stereo not drawn)	23.3 µM (inactive)	22.9 µM (inactive)	39.8 µM (inactive)	22.7 µM (inactive)	22.2 µM (inactive)	22.3 µM (inactive)	36.2 µM (inactive)	39.1 µM (inactive)	31.8 µM (inactive)	21.1 µM (inactive)	46.7 µM (inactive)	35.3 µM (inactive)	36.3 µM (inactive)	25 µM (inactive)	26.7 µM (inactive)	21.7 µM (inactive)	36.7 µM (inactive)	23.1 µM (inactive)	
CCCCCC(=O)OC[n+]1ccc2c(C)c3[nH]c4ccccc4c3c(C)c2c1	1.92 µM (inactive)	1.54 µM (inactive)	0.405 µM (active)	1.57 µM (inactive)	2.65 µM (inactive)	1.49 µM (inactive)	3.61 µM (inactive)	1.23 µM (inactive)		1.43 µM (inactive)	0.446 µM (active)	1.28 µM (inactive)		0.327 µM (active)	0.656 µM (active)	1.32 µM (inactive)	1.75 µM (inactive)	1.51 µM (inactive)	1.35 µM (inactive)
C/C(=N\NC(=S)N1CCCCCC1)c1cccc2cccnc12	3.77 µM (inactive)	3.17 µM (inactive)	2.01 µM (inactive)	2.58 µM (inactive)	1.94 µM (inactive)	0.193 µM (active)	19.5 µM (inactive)	> 26.4 µM (inactive)	2.12 µM (inactive)	1.77 µM (inactive)	1.55 µM (inactive)	> 19.9 µM (inactive)	2.95 µM (inactive)	0.134 µM (active)	0.839 µM (active)	0.589 µM (active)	1.86 µM (inactive)		5.64 µM (inactive)
N#Cc1ccc(C(O)C(F)(F)c2nc3ccccc3o2)cc1 (stereo not drawn)	> 100 µM (inactive)		84.1 µM (inactive)	99.8 µM (inactive)	30.3 µM (inactive)		> 100 µM (inactive)	> 100 µM (inactive)	18.9 µM (inactive)	> 100 µM (inactive)	> 100 µM (inactive)		35.7 µM (inactive)	29.2 µM (inactive)	> 100 µM (inactive)	32.9 µM (inactive)	95.5 µM (inactive)	37.2 µM (inactive)	
CN(C)CCN(C)CCC(=O)/C=C/c1ccccc1	> 100 µM (inactive)	18.4 µM (inactive)	15.6 µM (inactive)	22.2 µM (inactive)	> 64.7 µM (inactive)	4.02 µM (inactive)	39.2 µM (inactive)	21.3 µM (inactive)		20.1 µM (inactive)	18.5 µM (inactive)	> 60.1 µM (inactive)		7.26 µM (inactive)	57.7 µM (inactive)	> 48.1 µM (inactive)	> 47.9 µM (inactive)	> 44.5 µM (inactive)	> 89.9 µM (inactive)
O=C(NN1C(=O)C(Cl)C1c1ccc(Cl)cc1)c1c(Cl)c(Cl)c(Cl)c(Cl)c1-c1nc2ccccc2[nH]1 (stereo not drawn)	42.7 µM (inactive)	21.1 µM (inactive)	16.5 µM (inactive)	25.2 µM (inactive)	22.6 µM (inactive)	13.8 µM (inactive)	21.8 µM (inactive)	2.23 µM (inactive)		16.9 µM (inactive)	23.1 µM (inactive)	37.2 µM (inactive)	16.4 µM (inactive)	7.33 µM (inactive)		22.1 µM (inactive)	3.61 µM (inactive)	26.4 µM (inactive)	24.8 µM (inactive)
O=C(COc1ccc(Br)cc1Br)N1N=C(c2ccc([N+](=O)[O-])o2)CC1(O)c1ccccc1 (stereo not drawn)	24.1 µM (inactive)	10.7 µM (inactive)	15.6 µM (inactive)	23.1 µM (inactive)	5.36 µM (inactive)	5.48 µM (inactive)	12.5 µM (inactive)	2.53 µM (inactive)		12.6 µM (inactive)	13.1 µM (inactive)	29.3 µM (inactive)		2.64 µM (inactive)	8.73 µM (inactive)	18.2 µM (inactive)	19.5 µM (inactive)	5.45 µM (inactive)	10.2 µM (inactive)
Oc1cccc(-c2cc(=S)ss2)c1	20 µM (inactive)	17.6 µM (inactive)	19.7 µM (inactive)	14.9 µM (inactive)	14.3 µM (inactive)	6.89 µM (inactive)	15.6 µM (inactive)	18 µM (inactive)	14.3 µM (inactive)	19.7 µM (inactive)	18.5 µM (inactive)	15.9 µM (inactive)		3.22 µM (inactive)	14.8 µM (inactive)	18 µM (inactive)	14.4 µM (inactive)	5.97 µM (inactive)	
C/C(=C\COP(=O)(O)CP(=O)(O)O)CC/C=C(\C)CNc1ccccc1	> 100 µM (inactive)		> 100 µM (inactive)	> 100 µM (inactive)	> 100 µM (inactive)	> 100 µM (inactive)	> 100 µM (inactive)	> 100 µM (inactive)	> 100 µM (inactive)	> 100 µM (inactive)	> 100 µM (inactive)	> 100 µM (inactive)	> 100 µM (inactive)	> 100 µM (inactive)	> 100 µM (inactive)	> 100 µM (inactive)	> 100 µM (inactive)	> 100 µM (inactive)	
CN(C)c1ccc(/C=C/c2ccc(/C=C/c3ccc(N(C)C)cc3)cc2)cc1	> 100 µM (inactive)	13 µM (inactive)	> 100 µM (inactive)	90.4 µM (inactive)	41.2 µM (inactive)	> 100 µM (inactive)	> 100 µM (inactive)	> 100 µM (inactive)		> 100 µM (inactive)	> 100 µM (inactive)	> 100 µM (inactive)		> 100 µM (inactive)	> 100 µM (inactive)	81.8 µM (inactive)	> 100 µM (inactive)	35.1 µM (inactive)	> 100 µM (inactive)
CC(C)[C@@H](C(=O)N1CCC[C@H]1C(=O)OCc1ccccc1)N(C)C(=O)[C@H](C(C)C)N(C)C(=O)[C@H](Cc1ccccc1)N(C)C(=O)[C@H](NC(=O)OC(C)(C)C)C(C)C (Boc-[dV][NMeF][NMeV][NMeV]P-OBn)	> 50 µM (inactive)		> 50 µM (inactive)	> 50 µM (inactive)	> 50 µM (inactive)	> 50 µM (inactive)	> 50 µM (inactive)	> 50 µM (inactive)	> 50 µM (inactive)	> 50 µM (inactive)	> 50 µM (inactive)	> 50 µM (inactive)	> 50 µM (inactive)	> 50 µM (inactive)	> 50 µM (inactive)	> 50 µM (inactive)	> 50 µM (inactive)	> 50 µM (inactive)	> 50 µM (inactive)
